The values below come from patent publication US7521418B2, “Use of a polyene macrolide antifungal agent in combination with a glycopeptide antibacterial agent” (Theravance, Inc., priority 2003, dated 2009).

One experiment has as its system G. candidum ATCC 62231. Kind of experiment: Checkerboard MIC assay, FICI. It counts as cell-based, Geotricium candidum. The following applies: combination with Compound 1. The text has this:
(§1) The following assay was used to determine the minimum inhibitory concentration (MIC) and fractional inhibitory concentration index (FICI) for combinations of an antifungal agent and a glycopeptide antibacterial agent. This assay and methods for calculating FICI are well known in the art. See, for example, Eliopoulos, E. G. and R. Moellering, Jr. “Antimicrobial Combinations” in Antibiotics in Laboratory Medicine, edited by V. Lorian, 4th Ed., Williams & Wilkins, Baltimore, MD, pp. 330-396 (1996); […] et al., Antimicrobial Agents and Chemotherapy 47(4):1416-1418 (2003); or […] et al., Antimicrobial Agents and Chemotherapy 46(10):3323-3326 (2002). […] The MIC of the glycopeptide antibacterial agent determined from this experiment was used in FIC calculations. […]

In experiment [1] the test system is M. circinelloides ATCC 26759. The experiment can be described thus: Checkerboard MIC assay, FICI. It counts as cell-based, Mucor circinelloides. The following applies: combination with Compound 1.
Text: as §1

Consider `C[C@@H]1[C@H](O)[C@@H](C)/C=C/C=C/C=C/C=C/C=C/C=C/C=C/[C@H](O[C@@H]2O[C@H](C)[C@@H](O)[C@H](N)[C@@H]2O)C[C@@H]2O[C@](O)(C[C@@H](O)C[C@@H](O)[C@H](O)CC[C@@H](O)C[C@@H](O)CC(=O)O[C@H]1C)C[C@H](O)[C@H]2C(=O)O` [Amphotericin B], for which the FICI with G. candidum ATCC 62231 was determined as 0.63; in experiment [1] it was 0.26.

In the case of `C[C@@H]1[C@H](O)[C@@H](C)/C=C/C=C/CC/C=C/C=C/C=C/C=C/C(O[C@H]2O[C@H](C)[C@@H](O)[C@H](N)[C@@H]2O)CC2O[C@](O)(CC(O)C(O)CCC(O)CC(O)CC(O)CC(=O)O[C@H]1C)CC(O)C2C(=O)O` (stereo partly shown) [Nystatin], the FICI in the experiment with G. candidum ATCC 62231 came to 0.31; in experiment [1], 0.28.
